Legend:
[1] = system: DN model Wistar rats induced by streptozotocin; assay: STZ DN model rat: pathohistological indicators; format: in vivo; details: kidney
Procedure: (§1) The DN model Wistar rats were randomly divided into […] with 10 rats each group as indicated: normal glucose group; model group; CAL group (6, 2, 0.7 mg/kg); CAG group (9, 3, 1 mg/kg); CAL+CAG group (CAL:CAG, 2 mg/kg:1 mg/kg, 1 mg/kg:2 mg/kg); Radix Astragali group (5 g/kg); Aminoguanidine group (100 mg/kg).
(§2) The drugs or sodium chloride were intragastric adminstrated once each day for 14 weeks. After the administration, the total volume urine was collected by metabolic cage. The contents of urinary production, total protein, microalbumin and creatinine were determinated, and the biochemical indicators in blood was determinated using automatic biochemical analyzer. Then the kideny with fog Hahn fixation was reserved for histopathological examination.

[2] = system: DN model Wistar rats induced by streptozotocin; assay: STZ DN model rat: urinary production, total protein, microalbumin and creatinine; format: in vivo; details: for Microalbumin: urine
Procedure: as §1, §2

[3] = system: DN model Wistar rats induced by streptozotocin; assay: STZ DN model rat: serum biochemical indicators; format: in vivo; design: AGEs (advanced glycosylation end products): unit not given here
Procedure: as §1, §2

rat mesangial cells [4] = assay: Content of hydroxyproline in cell culture fluid of rat mesangial cells induced by high glucose; format: cell-based; details: high glucose (25 mM)
Procedure: (§3) The treatment was the same as section 2.1 in Experiment 1. The measurement of matrix proliferation was measured by determinating the content of hydroxyproline and the expression of TGFβ-1.
(§4) The coverslips were pre-placed in the 24-wells plates to stick the cells. The cells were treated with various concentrations of reagents as indicated in Experiment 1. After the cells covered with coverslip, the supernatant was used for the determination of hydroxyproline and the slides of cells were treated with stained with immunohistochemical and PAS staining. The cells cultured without TGFβ-1 antibody were taken as the negative control.

[5] = system: Rat mesangial cell line HBZY21; assay: High glucose-induced rat mesangial cell proliferation (MTT reduction assay); format: cell-based; details: 25 mM glucose, 24 h
Procedure: (§5) The mesangial cells in their exponential growth phase were cultured in 96-well plates at densities of 50000 cm^−2 in DMEM (5 mM glucose) at 37° C. in 5% CO2-95% air for 24 h. After pre-incubation in DMEM supplemented without fetal calf serum for 24 h, cells were then treated with various concentrations of glucose or AGEs for 24 h, 48 h, 72 h, 96 h, respectively.
According to the aboved method, after pre-incubation in DMEM supplemented without fetal calf serum for 24 h, cells were pretreated with 25 mM glucose, then were treated with various concentrations of reagents as indicated: normal glucose group (NG, 5.5 mM glucose); high glucose group (HG, 25 mM glucose); CAL group (CAL, 10, 100 nM); CAG group (CAG, 10, 100 nM); CAL+CAG group (CAL:CAG, 10 μg/ml:5 μg/ml, 5 μg/ml:10 μg/ml); Radix Astragali group (RA, 50 mg/ml aqueous extract). The plates were then incubated for 24 h. Proliferation was examined by MTT reduction assay. Experimental conditions were tested in sextuplicate (six wells of the 96-well plate per experimental condition).

TGFβ-1 = TGFβ-1 expression induced by high glucose (immunohistochemical staining, FIG. 2); format: cell-based, rat; details: 25 mM glucose
Procedure: wherein A: normal glucose group; B: high glucose group (25 mM); C: negative control group; D: CAL group (100 nM); E: CAL group (10 nM); F: CAL group (1 nM); G: CAG group (100 nM); H: CAG group (10 nM); I: CAG group (1 nM); J: Radix Astragali group (RA, 50 mg/ml aqueous extract); K: CAL:CAG group (10 μg/ml:5 μg/ml); L: CAL:CAG group (5 μg/ml:10 μg/ml).
as §3, §4

[6] = system: Rat mesangial cell line HBZY21; assay: AGEs-induced rat mesangial cell proliferation (MTT reduction assay); format: cell-based; details: 0.25 mg/ml AGEs, 24 h
Procedure: as §5
Cells were pretreated with 0.25 mg/mlAGEs, then were treated with various concentrations of reagents as indicated: normal glucose group (NG, 5.5 mM glucose); AGEs group (AGEs, 0.25 mg/mlAGEs); CAL group (CAL, 10, 100 nM); CAG group (CAG, 10, 100 nM); CAL+CAG group (CAL:CAG, 10 μg/ml:5 μg/ml, 5 μg/ml:10 μg/ml); Radix Astragali group (RA, 50 mg/ml aqueous extract). The plates were then incubated for 24 h. Proliferation was examined by MTT reduction assay. Experimental conditions were tested in sextuplicate (six wells of the 96-well plate per experimental condition).

rat mesangial cells [7] = assay: ECM accrementition induced by high glucose (PAS staining, FIG. 1); format: cell-based; details: 25 mM glucose
Procedure: wherein A: normal glucose group; B: high glucose group (25 mM); C: Radix Astragali group (RA, 50 mg/ml aqueous extract); D: CAL group (100 nM); E: CAL group (10 nM); F: CAL group (1 nM); G: CAG group (100 nM); H: CAG group (10 nM); I: CAG group (1 nM); J: CAL:CAG group (10 μg/ml:5 μg/ml). K: CAL:CAG group ([…]:10 μg/ml).
as §3, §4

[8] = 100 mg/kg intragastric once each day for 14 weeks
[9] = 1 mg/kg intragastric once each day for 14 weeks
[10] = 3 mg/kg intragastric once each day for 14 weeks
[11] = 9 mg/kg intragastric once each day for 14 weeks

## N=C(N)NN [Aminoguanidine, reference compound]
[1]; [8]
  ECM score (PAS %): 26.5 ± 4.3 %
  Patho-score: 2.1 ± 1.0
  TGFβ-1 (%): 11.7 ± 5.7 %
[2]; [8]
  Urinary production: 36.2 ± 21.8 mL
  Urine creatinine: 4.0 ± 2.3 mM
  Urine protein: 43.2 ± 29.9 mg
  Microalbumin: 1.00 ± 0.27 mg
[3]; [8]
  AGEs (advanced glycosylation end products): 283 ± 78
  BUN (Blood urea nitrogen): 6.6 ± 0.8 mmol/L
  LDL: 2.01 ± 0.58 mmol/L
  MDA (malonaldehyde): 5.9 ± 1.7 nmol/mL
  SOD (superoxide dismutase): 516 ± 20 U/ml
  Scr (serum creatinine): 77.7 ± 20.3 µmol/L
  triglyceride: 3.35 ± 0.87 mmol/L

## COc1ccc(-c2coc3cc(O[C@@H]4O[C@H](CO)[C@@H](O)[C@H](O)[C@H]4O)ccc3c2=O)cc1O [CAG, 3′-hydroxy-4′-methoxyisoflavone-7-O-β-D-glucopyranoside]
Rat mesangial cells [4]; 10 nM
  Content of hydroxyproline in cell culture fluid: 6.25 ± 1.20 µg/mL
Rat mesangial cells [4]; 100 nM
  Content of hydroxyproline in cell culture fluid: 6.00 ± 1.53 µg/mL
[5]; 10 nM
  OD value (λ = 490 nm): 0.35 ± 0.04
[5]; 100 nM
  OD value (λ = 490 nm): 0.33 ± 0.03
[1]; [9]
  ECM score (PAS %): 32.5 ± 4.1%
  Patho-score: 2.8 ± 0.9
  TGFβ-1 (%): 20.0 ± 4.3 %
[1]; [10]
  ECM score (PAS %): 28.9 ± 5.4 %
  Patho-score: 1.9 ± 1.1
  TGFβ-1 (%): 16.2 ± 4.7 %
[1]; [11]
  ECM score (PAS %): 26.9 ± 4.5 %
  Patho-score: 1.7 ± 0.9
  TGFβ-1 (%): 9.1 ± 2.2 %
[2]; [9]
  Urinary production: 58.9 ± 20.5 mL
  Urine creatinine: 1.3 ± 0.6 mM
  Urine protein: 67.1 ± 18.4 mg
  Microalbumin: 1.52 ± 0.56 mg
[2]; [10]
  Urinary production: 42.3 ± 12.8 mL
  Urine creatinine: 2.7 ± 1.1 mM
  Urine protein: 55.0 ± 13.4 mg
  Microalbumin: 0.90 ± 0.45 mg
[2]; [11]
  Urinary production: 33.9 ± 20.2 mL
  Urine creatinine: 4.2 ± 1.6 mM
  Urine protein: 44.2 ± 20.6 mg
  Microalbumin: 0.93 ± 0.22 mg
TGFβ-1
  expression of TGFβ-1 induced by high glucose: inhibited
[6]; 10 nM
  OD value (λ = 490 nm): 0.34 ± 0.06
[6]; 100 nM
  OD value (λ = 490 nm): 0.33 ± 0.04
Rat mesangial cells [7]
  ECM accrementition induced by high glucose: inhibited
[3]; [9]
  AGEs (advanced glycosylation end products): 288 ± 44
  BUN (Blood urea nitrogen): 6.9 ± 0.9 mmol/L
  LDL: 1.94 ± 0.44 mmol/L
  MDA (malonaldehyde): 7.9 ± 1.6 nmol/mL
  SOD (superoxide dismutase): 490 ± 23 U/ml
  Scr (serum creatinine): 89.0 ± 21.1 µmol/L
  triglyceride: 3.20 ± 0.71 mmol/L
[3]; [10]
  AGEs (advanced glycosylation end products): 281 ± 46
  BUN (Blood urea nitrogen): 6.7 ± 0.8 mmol/L
  LDL: 1.60 ± 0.43 mmol/L
  MDA (malonaldehyde): 6.5 ± 1.4 nmol/mL
  SOD (superoxide dismutase): 502 ± 31 U/ml
  Scr (serum creatinine): 73.5 ± 22.5 µmol/L
  triglyceride: 2.66 ± 0.72 mmol/L
[3]; [11]
  AGEs (advanced glycosylation end products): 275 ± 68
  BUN (Blood urea nitrogen): 5.9 ± 1.6 mmol/L
  LDL: 1.23 ± 0.26 mmol/L
  MDA (malonaldehyde): 6.5 ± 1.2 nmol/mL
  SOD (superoxide dismutase): 512 ± 19 U/ml
  Scr (serum creatinine): 74.2 ± 16.0 µmol/L
  triglyceride: 2.43 ± 0.70 mmol/L

— US20110053872A1, “Pharmaceutical Composition For Preventing And Treating Diabetic Nephropathy And The Preparation Method Thereof” (GUANGZHOU CONSUN MEDICINE R & D CO., LTD., priority 2009, published 2011)
